This is an account of results in patent US10717730B1, “Dihydroisoquinoline compound” (SUZHOU ARK BIOPHARMACEUTICAL CO., LTD., priority 2017, dated 2020).

Where a name gives a salt, the structure may show the parent alone.

Broadly, the IC50 is the concentration at which inhibition is half-maximal. A high value points to a need for much substance.

For the test, the system named is HBsAg. The experiment in a line: HBsAg assay (secreted HBsAg by CLIA in HepG2.2.15 cells). The format is cell-based, hepatitis B virus (HBV). The conditions noted are these: Hepatitis B virus, HepG2.2.15, 96 h. On the procedure: HepG2.2.15 cells (Sells et al, Proc Natl Acad Sci USA. 1987 February; 84(4):1005-9), a constitutively HBV-expressing cell line, were cultured in DMEM medium supplemented with 10% FBS and 400 μg/mL G418, and maintained in 5% CO2 at 37° C.
HepG2.2.15 cells were seeded into 96-well plates at 3×10^4 cells/well. The next day, the cells were treated with a five-fold serial dilution series of the compound in DMSO. The final DMSO concentration in all wells was 0.5% and 0.5% DMSO was used as no drug control. After four days of incubation with compounds, the supernatants were harvested and measured for HBsAg concentration
The HBsAg chemiluminescence immunoassay (CLIA) kit was used to measure the levels of secreted HBsAg. Specifically, 50 μL of culture supernatant was transferred to the CLIA assay plate and 50 μL of enzyme conjugate reagent was added into each well. The plates were sealed and incubated for 1 hour at room temperature. The supernatant-enzyme-mixture was discarded and wells were washed for 6 times. The residual liquid was removed by plating on tissue paper. 25 μL of substrate A and B were added into each well. Luminance was measured using a spectrometer (Tecan Infinite® F200) after 10 minutes incubation. IC50 value was extrapolated based the dose-response curves generated from the data.
On to `COc1cc2c(cc1-c1ccnc(C)c1)CC(C(C)(C)C)n1cc(C(=O)O)c(=O)cc1-2` (stereo not drawn) [Example 38, 6-(tert-butyl)-10-methoxy-9-(2-methylpyridin-4-yl)-2-oxo-6,7-dihydro-2H-pyrido[2,1-a]isoquinoline-3-carboxylic acid], for which it took 0.005 µM to reach half-maximal inhibition (IC50).

Turning to `COc1cc2c(cc1-c1ccc(N(C)C)nc1)CC(C(C)(C)C)n1cc(C(=O)O)c(=O)cc1-2` (stereo not drawn) [Example 43, 6-(tert-butyl)-9-(6-(dimethylamino)pyridin-3-yl)-10-methoxy-2-oxo-6,7-dihydro-2H-pyrido[2,1-a]isoquinoline-3-carboxylic acid], the concentration for half-maximal inhibition (IC50) was found to be 0.001 µM.

In turn, `CCc1ccc(-c2cc3c(cc2OC)-c2cc(=O)c(C(=O)O)cn2C(C(C)(C)C)C3)cc1` (stereo not drawn) [Example 34, 6-(tert-butyl)-9-(4-ethylphenyl)-10-methoxy-2-oxo-6,7-dihydro-2H-pyrido[2,1-a]isoquinoline-3-carboxylic acid] displayed a half-inhibitory concentration (IC50) of 0.036 µM.

The molecule `COc1cc2c(cc1-c1ccc(N3CCCC3)nc1)CC(C(C)(C)C)n1cc(C(=O)O)c(=O)cc1-2` (stereo not drawn) [Example 44, 6-(tert-butyl)-10-methoxy-2-oxo-9-(6-(pyrrolidin-1-yl)pyridin-3-yl)-6,7-dihydro-2H-pyrido[2,1-a]isoquinoline-3-carboxylic acid] showed a 50% inhibitory concentration (IC50) of 0.01 µM.

Molecule `COc1cc2c(cc1-c1cnc(NCC3CC3)nc1)CC(C(C)(C)C)n1cc(C(=O)O)c(=O)cc1-2` (stereo not drawn) [Example 67, 6-(tert-butyl)-9-(2-(cylcopropylmethylamino)pyrimidin-5-yl)-10-methoxy-2-oxo-6,7-dihydro-2H-pyrido[2,1-a]isoquinoline-3-carboxylic acid] returned an IC50 of 0.0003 µM.

`COc1cc2c(cc1-c1cnc(N)nc1)CC(C(C)(C)C)n1cc(C(=O)O)c(=O)cc1-2` (stereo not drawn) [Example 65, 9-(2-aminopyrimidin-5-yl)-6-(tert-butyl)-10-methoxy-2-oxo-6,7-dihydro-2H-pyrido[2,1-a]isoquinoline-3-carboxylic acid] came in with an IC50 of 0.08 µM.

For `COc1cc2c(cc1-c1cnn(CC(C)C)c1)CC(C(C)C)n1cc(C(=O)O)c(=O)cc1-2` (stereo not drawn) [Example 5, 9-(1-isobutyl-1H-pyrazol-4-yl)-6-isopropyl-10-methoxy-2-oxo-6,7-dihydro-2H-pyrido[2,1-a]isoquinoline-3-carboxylic acid], it took 0.014 µM to reach half-maximal inhibition (IC50).

On to `CCOC(=O)CCn1cc(-c2cc3c(cc2OC)-c2cc(=O)c(C(=O)O)cn2C(C(C)(C)C)C3)cn1` (stereo not drawn) [Example 23, 6-(tert-butyl)-9-(1-(3-ethoxy-3-oxopropyl)-1H-pyrazol-4-yl)-10-methoxy-2-oxo-6,7-dihydro-2H-pyrido[2,1-a]isoquinoline-3-carboxylic acid], for which it took 0.04 µM to reach half-maximal inhibition (IC50).

Molecule `COc1cc2c(cc1-c1cnn(CCCO)c1)CC(C(C)C)n1cc(C(=O)O)c(=O)cc1-2` (stereo not drawn) [Example 4, 9-(1-(3-hydroxypropyl)-1H-pyrazol-4-yl)-6-isopropyl-10-methoxy-2-oxo-6,7-dihydro-2H-pyrido[2,1-a]isoquinoline-3-carboxxylic acid] returned an IC50 of 0.024 µM.

Molecule `COc1cc2c(cc1-c1cnn(C(F)F)c1)CC(C(C)(C)C)n1cc(C(=O)O)c(=O)cc1-2` (stereo not drawn) [Example 14, 6-(tert-butyl)-9-(1-(difluoromethyl)-1H-pyrazol-4-yl)-10-methoxy-2-oxo-6,7-dihydro-2H-pyrido[2,1-a]isoquinoline-3-carboxylic acid] had an IC50 of 0.002 µM.

As to `COc1cc2c(cc1-c1ccccc1)CC(C(C)(C)C)n1cc(C(=O)O)c(=O)cc1-2` (stereo not drawn) [Example 33, 6-(tert-butyl)-10-methoxy-2-oxo-9-phenyl-6,7-dihydro-2H-pyrido[2,1-a]isoquinoline-3-carboxylic acid], the IC50 stood at 0.02 µM.

`COc1cc2c(cc1-c1cnn(C3CCNCC3)c1)CC(C(C)(C)C)n1cc(C(=O)O)c(=O)cc1-2` (stereo not drawn) [Example 17, 6-(tert-butyl)-10-methoxy-2-oxo-9-(1-(piperidin-4-yl)-1H-pyrazol-4-yl)-6,7-dihydro-2H-pyrido[2,1-a]isoquinoline-3-carboxylic acid hydrochloride] had an IC50 of 0.025 µM.

In the case of `COc1cc2c(cc1-c1cnc(N3CCC(C(=O)O)C3)nc1)CC(C(C)(C)C)n1cc(C(=O)O)c(=O)cc1-2` (stereo not drawn) [Example 77, 6-(tert-butyl)-9-(2-(3-carboxypyrrolidin-1-yl)pyrimidin-5-yl)-10-methoxy-2-oxo-6,7-dihydro-2H-pyrido[2,1-a]isoquinoline-3-carboxylic acid], the IC50 worked out at 0.15 µM.

`COc1cc2c(cc1-c1cnn(CC(F)(F)F)c1)CC(C(C)C)n1cc(C(=O)O)c(=O)cc1-2` (stereo not drawn) [Example 2, 6-isopropyl-10-methoxy-2-oxo-9-(1-(2,2,2-trifluoroethyl)-1H-pyrazol-4-yl)-6,7-dihydro-2H-pyrido[2,1-a]isoquinoline-3-carboxylic acid]: the IC50 is 0.008 µM.

As for `COc1cc2c(cc1-c1cnn(CCN3CCOCC3)c1)CC(C(C)(C)C)n1cc(C(=O)O)c(=O)cc1-2` (stereo not drawn) [Example 16, 6-(tert-butyl)-10-methoxy-9-(1-(2-morpholinylethyl)-1H-pyrazol-4-yl)-2-oxo-6,7-dihydro-2H-pyrido[2,1-a]isoquinoline-3-carboxylaic acid], the IC50 was 0.002 µM.

`COc1cc2c(cc1-c1ccnn1C)CC(C(C)(C)C)n1cc(C(=O)O)c(=O)cc1-2` (stereo not drawn) [Example 13, 6-(tert-butyl)-10-methoxy-9-(1-methyl-1H-pyrazol-5-yl)-2-oxo-6,7-dihydro-2H-pyrido[2,1-a]isoquinoline-3-carboxylic acid] gave an IC50 of 0.018 µM.

Take `COc1cc2c(cc1-c1ccc(NCC3CC3)nc1)CC(C(C)(C)C)n1cc(C(=O)O)c(=O)cc1-2` (stereo not drawn) [Example 52, 6-(tert-butyl)-9-(6-(cyclopropylmethylamino)pyridin-3-yl)-10-methoxy-2-oxo-6,7-dihydro-2H-pyrido[2,1-a]isoquinoline-3-carboxylic acid]: the IC50 was 0.012 µM.

For the molecule `COCCn1cc(-c2cc3c(cc2OC)-c2cc(=O)c(C(=O)O)cn2C(C(C)C)C3)cn1` (stereo not drawn) [Example 3, 6-isopropyl-10-methoxy-9-(1-(2-methoxyethyl)-1H-pyrazol-4-yl)-2-oxo-6,7-dihydro-2H-pyrido[2,1-a]isoquinoline-3-carboxylic acid], the IC50 was determined as 0.018 µM.

Consider `COc1cc2c(cc1-c1ccc(N3CCN(C)CC3)nc1)CC(C(C)(C)C)n1cc(C(=O)O)c(=O)cc1-2` (stereo not drawn) [Example 47, 6-(tert-butyl)-10-methoxy-9-(6-(4-methylpiperazin-1-yl)pyridin-3-yl)-2-oxo-6,7-dihydro-2H-pyrido[2,1-a]isoquinoline-3-carboxylic acid], for which the IC50 stood at 0.002 µM.

In the case of `CCOC(=O)c1cn2c(cc1=O)-c1cc(OC)c(-c3ccc(C)nc3)cc1CC2C(C)(C)C` (stereo not drawn) [Example 55, Ethyl 6-(tert-butyl)-10-methoxy-9-(6-methylpyridin-3-yl)-2-oxo-6,7-dihydro-2H-pyrido[2,1-a]isoquinoline-3-carboxylate], half-maximal inhibition (IC50) required 0.0008 µM.

`COc1ccc(-c2cc3c(cc2OC)-c2cc(=O)c(C(=O)O)cn2C(C(C)(C)C)C3)cc1` (stereo not drawn) [Example 35, 6-(tert-butyl)-10-methoxy-9-(4-methoxyphenyl)-2-oxo-6,7-dihydro-2H-pyrido[2,1-a]isoquinoline-3-carboxylic acid] displayed an IC50 of 0.29 µM.

Turning to `COc1cc2c(cc1-c1cnc(NCC(=O)O)nc1)CC(C(C)(C)C)n1cc(C(=O)O)c(=O)cc1-2` (stereo not drawn) [Example 78, 6-(tert-butyl)-9-(2-((carboxymethyl)amino)pyrimidin-5-yl)-10-methoxy-2-oxo-6,7-dihydro-2H-pyrido[2,1-a]isoquinoline-3-carboxylic acid], the IC50 amounted to 0.045 µM.

As for `COc1cc2c(cc1-c1cnc(C)nc1)CC(C(C)(C)C)n1cc(C(=O)O)c(=O)cc1-2` (stereo not drawn) [Example 58, 6-(tert-butyl)-10-methoxy-9-(2-methylpyrimidin-5-yl)-2-oxo-6,7-dihydro-2H-pyrido[2,1-a]isoquinoline-3-carboxylic acid], the half-maximal inhibitory concentration (IC50) is 0.004 µM.

`COc1cc2c(cc1-c1cnc(N(C)C)nc1)CC(C(C)(C)C)n1cc(C(=O)O)c(=O)cc1-2` (stereo not drawn) [Example 61, 6-(tert-butyl)-9-(2-(dimethylamino)pyrimidin-5-yl)-10-methoxy-2-oxo-6,7-dihydro-2H-pyrido[2,1-a]isoquinoline-3-carboxylic acid] gave a half-inhibitory concentration (IC50) of 0.004 µM.

For `COc1cc2c(cc1-c1cnn(C(C)C(=O)O)c1)CC(C(C)(C)C)n1cc(C(=O)O)c(=O)cc1-2` (stereo not drawn) [Example 26, 6-(tert-butyl)-9-(1-(1-carboxyethyl)-1H-pyrazol-4-yl)-10-methoxy-2-oxo-6,7-dihydro-2H-pyrido[2,1-a]isoquinoline-3-carboxylic acid], the IC50 turned out to be 0.008 µM.

On to `COc1cc2c(cc1-c1cn[nH]c1)CC(C(C)(C)C)n1cc(C(=O)O)c(=O)cc1-2` (stereo not drawn) [Example 8, 6-(tert-butyl)-10-methoxy-2-oxo-9-(1H-pyrazol-4-yl)-6,7-dihydro-2H-pyrido[2,1-a]isoquinoline-3-carboxylic acid], for which the midpoint of inhibition, the IC50, lay at 0.009 µM.

In turn, `COc1cc2c(cc1-c1cnc(NC3CC3)nc1)CC(C(C)(C)C)n1cc(C(=O)O)c(=O)cc1-2` (stereo not drawn) [Example 64, 6-(tert-butyl)-9-(2-(cyclopropylamino)pyrimidin-5-yl)-10-methoxy-2-oxo-6,7-dihydro-2H-pyrido[2,1-a]isoquinoline-3-carboxylic acid] registered an IC50 of 0.007 µM.
